Tests used:
[1] = biological target: T1, Polyunsaturated fatty acid 5-lipoxygenase (Rattus norvegicus, UniProt P12527); assay: The compound was tested for inhibitory activity against 5-lipoxygenase in rat polymorphonuclear leukocytes[PMNS]; type: cell-based
T1 sequence (P12527 whole entry): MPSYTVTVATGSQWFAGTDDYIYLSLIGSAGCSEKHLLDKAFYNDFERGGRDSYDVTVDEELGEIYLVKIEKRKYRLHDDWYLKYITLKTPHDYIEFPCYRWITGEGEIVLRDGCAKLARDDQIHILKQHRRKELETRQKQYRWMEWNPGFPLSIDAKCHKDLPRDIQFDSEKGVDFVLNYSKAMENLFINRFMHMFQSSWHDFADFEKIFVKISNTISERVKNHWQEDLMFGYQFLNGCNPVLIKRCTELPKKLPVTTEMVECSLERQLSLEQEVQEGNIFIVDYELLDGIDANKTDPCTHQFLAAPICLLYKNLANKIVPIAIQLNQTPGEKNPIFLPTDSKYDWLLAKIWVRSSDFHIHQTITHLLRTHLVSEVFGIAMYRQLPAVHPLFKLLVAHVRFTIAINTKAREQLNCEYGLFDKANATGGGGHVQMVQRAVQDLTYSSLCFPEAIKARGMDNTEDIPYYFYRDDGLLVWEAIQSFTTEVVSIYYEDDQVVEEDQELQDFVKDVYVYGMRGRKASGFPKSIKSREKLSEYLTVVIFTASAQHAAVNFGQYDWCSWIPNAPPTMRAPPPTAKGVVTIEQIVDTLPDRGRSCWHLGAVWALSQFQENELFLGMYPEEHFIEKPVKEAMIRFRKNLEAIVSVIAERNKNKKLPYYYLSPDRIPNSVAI

[2] = biological target: T2, Polyunsaturated fatty acid 5-lipoxygenase (Rattus norvegicus) (UniProt P12527); assay: The compound was tested for inhibition of 5-lipoxygenase translocation in SAR in rat RBL-2H3 cells; type: cell-based
T2 sequence (whole entry): T1 sequence (P12527 whole entry)

[3] = organism: Mus musculus; assay: The effective dose which inhibits […] induced contact hypersensitivity in mouse ears; type: functional
[4] = biological target: T3, Prostaglandin G/H synthase (cyclooxygenase) (Mus musculus, UniProt P22437+Q05769); assay: The compound was tested for inhibitory activity against cyclooxygenase in mouse macrophages; type: protein assay
T3 sequence (P22437 whole entry): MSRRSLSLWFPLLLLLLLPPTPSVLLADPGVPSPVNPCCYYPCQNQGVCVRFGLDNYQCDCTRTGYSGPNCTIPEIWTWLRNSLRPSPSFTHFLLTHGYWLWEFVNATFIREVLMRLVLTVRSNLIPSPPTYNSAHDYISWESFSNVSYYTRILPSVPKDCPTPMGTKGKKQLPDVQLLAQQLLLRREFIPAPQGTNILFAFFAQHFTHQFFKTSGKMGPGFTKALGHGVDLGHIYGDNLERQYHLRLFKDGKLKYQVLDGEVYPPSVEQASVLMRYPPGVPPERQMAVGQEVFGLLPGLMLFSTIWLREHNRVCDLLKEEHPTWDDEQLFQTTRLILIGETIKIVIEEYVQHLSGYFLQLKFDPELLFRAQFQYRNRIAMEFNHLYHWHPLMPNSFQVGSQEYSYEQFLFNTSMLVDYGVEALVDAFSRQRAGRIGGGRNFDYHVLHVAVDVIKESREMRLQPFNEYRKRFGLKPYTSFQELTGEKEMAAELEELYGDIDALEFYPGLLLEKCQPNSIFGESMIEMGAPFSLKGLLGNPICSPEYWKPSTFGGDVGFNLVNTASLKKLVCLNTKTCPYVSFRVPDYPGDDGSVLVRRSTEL
T3 sequence (Q05769 whole entry): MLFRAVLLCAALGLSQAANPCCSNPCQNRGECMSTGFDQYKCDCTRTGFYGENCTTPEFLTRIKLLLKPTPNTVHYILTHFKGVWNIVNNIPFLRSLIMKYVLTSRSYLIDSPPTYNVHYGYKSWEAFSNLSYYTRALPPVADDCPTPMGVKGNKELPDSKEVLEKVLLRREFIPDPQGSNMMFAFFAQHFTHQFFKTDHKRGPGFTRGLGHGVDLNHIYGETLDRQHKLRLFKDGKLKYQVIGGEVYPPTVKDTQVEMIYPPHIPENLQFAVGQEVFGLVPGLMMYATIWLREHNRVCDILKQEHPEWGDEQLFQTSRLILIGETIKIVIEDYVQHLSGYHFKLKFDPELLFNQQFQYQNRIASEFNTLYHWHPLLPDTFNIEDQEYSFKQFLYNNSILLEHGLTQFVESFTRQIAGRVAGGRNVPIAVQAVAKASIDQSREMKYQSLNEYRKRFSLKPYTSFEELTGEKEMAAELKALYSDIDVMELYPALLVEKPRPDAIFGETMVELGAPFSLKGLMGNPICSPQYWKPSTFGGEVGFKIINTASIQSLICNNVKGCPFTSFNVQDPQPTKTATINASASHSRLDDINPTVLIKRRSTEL

c1ccc2nc(COc3cccc4ccccc34)ccc2c1
IC50 [1]: 400 nM
Inhibition [2]: 500 nM
ED50 [3]: 0.4 mg ear-1
IC50 [4]: 44000 nM

From ChEMBL document CHEMBL1125472, “5-lipoxygenase: properties, pharmacology, and the quinolinyl(bridged)aryl class of inhibitors” (J Med Chem, 1992)
